Data as given in publication PMC3301443 (Scientific Reports, 2012).

Columns and labels:
KDHba = assay type: biochemical, Burkholderia ambifaria; settings: aldehyde oxidation
PadA = target: T1, PadA (Escherichia coli, UniProt P80668); assay: in vitro enzyme kinetics; assay type: biochemical; settings: aldehyde oxidation
T1 sequence (P80668 1-499): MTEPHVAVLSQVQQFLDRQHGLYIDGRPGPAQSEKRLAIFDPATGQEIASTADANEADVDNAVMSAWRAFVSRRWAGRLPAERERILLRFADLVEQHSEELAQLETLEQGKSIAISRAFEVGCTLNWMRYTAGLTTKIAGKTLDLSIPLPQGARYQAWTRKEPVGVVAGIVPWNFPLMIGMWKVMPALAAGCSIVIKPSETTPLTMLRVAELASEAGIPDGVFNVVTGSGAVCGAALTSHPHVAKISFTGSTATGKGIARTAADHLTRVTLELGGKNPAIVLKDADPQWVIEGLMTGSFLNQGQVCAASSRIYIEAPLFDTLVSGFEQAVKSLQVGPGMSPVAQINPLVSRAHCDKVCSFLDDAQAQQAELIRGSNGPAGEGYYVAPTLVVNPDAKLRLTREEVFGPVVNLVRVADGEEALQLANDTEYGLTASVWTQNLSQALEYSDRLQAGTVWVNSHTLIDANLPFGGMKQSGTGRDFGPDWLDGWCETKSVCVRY

Structure (SMILES) | Km (KDHba) [µM] | Km (PadA) [µM]
CC(C)C=O [isobutanal] | 34500 | 
CC(C)CCC=O [isohexanal] | 520 | 
CC(C)CC=O [isopentanal] |  | 1950
